# From ChEMBL document CHEMBL1147060
# The source made the active and inactive calls. The rule behind the calls is not given here.
# How the values were obtained:
# U-937 [1] = assay: Decrease in LPS-induced TNFalpha release in human U937 cells after 1 hr by ELISA; format: functional, cell-based
# U-937 [2] = assay: Inhibition of LPS-induced TNFalpha release in human U937 cells at 2 uM after 1 hr by ELISA; format: functional, cell-based
# U-937 [3] = assay: Decrease in basal TNFalpha release in human U937 cells after 1 hr by ELISA; format: functional, cell-based
# U-937 [4] = assay: Inhibition of basal TNFalpha release in human U937 cells at 2 uM after 1 hr by ELISA; format: functional, cell-based
# BMMC [5] = assay: Inhibition of antigen-induced histamine release in Tec-deficient BMMC at 1 uM after 30 mins; format: functional, cell-based; conditions: Mus musculus
# Homo sapiens = species: Homo sapiens; assay: Inhibition of antigen-induced histamine release in human basophils at 1 uM after 30 mins; format: functional
# BMMC [6] = assay: Inhibition of antigen-induced histamine release in wild-type BMMCs at 1 uM after 30 mins; format: functional, cell-based; conditions: Mus musculus
# Mast cell = assay: Inhibition of antigen-induced IL6 secretion in mouse mast cells at 1 uM after 24 hrs by ELISA; format: functional, cell-based
structure (smiles),measurement,setting,value
Cc1nc(Nc2ncc(C(=O)Nc3c(C)cccc3Cl)s2)cc(N2CCN(CCO)CC2)n1,Activity,U-937 [1],Active
same,Activity,U-937 [2],inactive
same,Activity,U-937 [3],Active
same,Activity,U-937 [4],inactive
same,Activity,BMMC [5],Active
same,Activity,Homo sapiens,Active
same,Activity,BMMC [6],Active
same,Activity,Mast cell,Active
